Where a name gives a salt, the structure may show the parent alone.
Columns and labels:
[1] = system: IRE1a-mediated XBP1 splicing; experiment: Suppression of XBP1 splicing in liver of tunicamycin-injected mice; assay type: in vivo; conditions: 0.25 mg/kg tunicamycin, 10 mg/kg compound intraperitoneal, 4 hours, RT-qPCR
Procedure: Mice were injected with 0.25 mg/kg tunicamycin dissolved in DMSO: PBS at a ratio of 1:3. After 2 hours, the mice were injected with 10 mg/kg of Compound 3 dissolved in water or water alone as a vehicle control. After an additional 4 hours, the animals were euthanized, livers dissected out, and 2-3 mm^3 liver pieces are flash frozen on dry ice. Liver pieces were then thawed in Trizol on ice, homogenized for 3 minutes with a bead mill at medium-high speed. RNA was then extracted from the Trizol solution according to the manufacturer's recommendation. Gene expression analysis was also performed via Reverse Transcription quantitative PCR (RT-qPCR) using a Stratagene Mx3005 instrument and SYBR green I (Life Technologies). Gene expression was measured of the spliced Xbp1s transcript, a primer set measuring all Xbp1 transcripts, Xbp1s target genes including Sec24d and general ER stress response markers Hspa5 (BiP) and Ddit3 (CHOP).

[2] = Microsome stability assay, human liver microsomes; assay type: in vitro ADME; conditions: formic acid salt
Procedure: (§1) The formic acid salt of Compound 3 was tested under the microsome stability assay outlined below. Test compounds were incubated at 37° C. with liver microsomes (pooled from multiple donors) at […] in the presence of a NADPH regenerating system at 0.5 mg/ml microsomal protein. Positive controls included Testosterone (3A4 substrate), Propafenone (2D6) and Diclofenac (2C9), which were incubated with microsomes in the presence of an NADPH regenerating system. At time points (0, 5, 10, 20, 30 and 60 minutes), samples were removed and immediately mixed with cold acetonitrile containing internal standard (IS). Test compounds incubated with microsomes without the NADPH regenerating system for 60 min was also included. A single point for each test condition (n=1) was obtained, and samples were analyzed by LC/MS/MS. Disappearance of the test compound was assessed based on peak area ratios of analyte/IS (no standard curve).

[3] = system: IRE1a-mediated XBP1 splicing; experiment: Inhibition of IRE1a signaling in cell types of the tumor microenvironment (metastatic ovarian cancer mice); assay type: in vivo; conditions: mice with metastatic ovarian cancer, 11 mg/kg, 12 hours, tumor cells, DC, CD4+ and CD8+ T cells from ascites
Procedure: A syngeneic mouse model for metastatic, orthotopic ovarian cancer was used to analyze the in vivo effects of compounds described herein. Assay conditions were similar to those described in Example 11, administering compound 3 for comparison against controls. […] After 12 hours, the ascites were drained and FACS was used to purify the cells into four populations: tumor cells, dendritic cells (DC), CD4+ T cells, and CD8+ T cells. Then, PCR and qPCR was used to quantify spliced Xbp1 transcripts and total Xbp1 transcripts. […] Compound 3 can therefore inhibit IRE1a-mediated XBP1 splicing in vivo in tumor cells and key immune cell types found within the tumor microenvironment.

[4] = Microsome stability assay, mouse liver microsomes; assay type: in vitro ADME; conditions: formic acid salt
Procedure: as §1

IRE1a [5] = molecular target: T1, IRE1a (Homo sapiens, UniProt O75460); experiment: In vitro FRET assay (XBP1 RNA probe cleavage by IRE1a); assay type: biochemical; set-up: purchased SignalChem; conditions: 2 nM IRE1a protein
hERG channel = molecular target: T2, hERG channel (Homo sapiens, UniProt Q12809); experiment: hERG potassium ion channel automated planar clamp (QPatch); assay type: cell-based; conditions: hERG channel expressed in a stable CHO cell line, read-out: hERG channel blockade Mean IC50
T2 construct: expressed in transfected cells
Procedure: Blockade of the cardiac ion channel coded by the hERG gene can lead to cardiac arrhythmia. […] To determine the viability of the compounds disclosed herein as pharmacological agents that would not affect the hERG channel blockade, a standard automated planar clamp method was employed to determine the IC50 for various test compounds on their inhibition of the channel. An electrophysiological assay was prepared to measure the electric current passing through the hERG channel expressed in a stable CHO cell line by applying the planar clamp method. This assay was performed using the automated QPatch platform (Sophion, Denmark) which allows fast and accurate electrophysiological characterization of the hERG ion channel and the determination of IC50 values for the test compounds, as shown in Table 9.

293T cells = experiment: Growth assay (cytotoxicity); assay type: cell-based; conditions: 2 day incubation
Procedure: A growth assay was performed to evaluate the compounds disclosed herein for cytotoxicity. Briefly, 5,000,000 293T cells were resuspended in 18 mL of cDMEM for a final concentration of 277,777 cells/mL. […] In a separate 96 well dilution plate, 199 uL cDMEM and 1 uL of DMSO or any one of the compounds disclosed herein (shown as Test Compound 1, 2, 3, 4, 5, or 6 below) were added to wells A4, A8, C4, C8, E4, E8, G4, and G8. 133.3 uL cDMEM was added to wells 1, 2, 3, 5, 6, and 7 in rows A, C, E and G of the dilution plate. Compounds were serially diluted leftwards in threefold dilutions (66.7 uL into 133.3 uL cDMEM). 20 uL of each dilution was transferred in duplicate (duplicates in vertical paired wells) to the cells plated in the 96-well plate shown in Table 5, to the total concentrations shown below. 200 uL cDMEM was added to media wells (wells G5-H8). The plate was then placed in a humidified chamber for a 2 day incubation, and then photographed (media was more yellow in wells with potent cell growth). Absorbance was then measured at about […] (lower for more acidic media) and about […] (higher for more acidic media).

IRE1a [6] = molecular target: T1, IRE1a; experiment: IRE1a Endoribonuclease Nanoluciferase Assay (XBP1 luciferase reporter in 293T cells); assay type: cell-based; conditions: 293T cells transfected with XBP1 luciferase reporter, ER stressors +/- inhibitors
Summary of the method: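 293T cells were transfected with a PGK-Luc2-P2A-XBP1u-nanoluciferase-PEST reporter and plated in 96-well format. A day later they were treated with ER stressors with or without inhibitors. Lysates were read for luminescence with OneGlo, then again after Stop and Glo.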

T2 sequence (Q12809 whole entry): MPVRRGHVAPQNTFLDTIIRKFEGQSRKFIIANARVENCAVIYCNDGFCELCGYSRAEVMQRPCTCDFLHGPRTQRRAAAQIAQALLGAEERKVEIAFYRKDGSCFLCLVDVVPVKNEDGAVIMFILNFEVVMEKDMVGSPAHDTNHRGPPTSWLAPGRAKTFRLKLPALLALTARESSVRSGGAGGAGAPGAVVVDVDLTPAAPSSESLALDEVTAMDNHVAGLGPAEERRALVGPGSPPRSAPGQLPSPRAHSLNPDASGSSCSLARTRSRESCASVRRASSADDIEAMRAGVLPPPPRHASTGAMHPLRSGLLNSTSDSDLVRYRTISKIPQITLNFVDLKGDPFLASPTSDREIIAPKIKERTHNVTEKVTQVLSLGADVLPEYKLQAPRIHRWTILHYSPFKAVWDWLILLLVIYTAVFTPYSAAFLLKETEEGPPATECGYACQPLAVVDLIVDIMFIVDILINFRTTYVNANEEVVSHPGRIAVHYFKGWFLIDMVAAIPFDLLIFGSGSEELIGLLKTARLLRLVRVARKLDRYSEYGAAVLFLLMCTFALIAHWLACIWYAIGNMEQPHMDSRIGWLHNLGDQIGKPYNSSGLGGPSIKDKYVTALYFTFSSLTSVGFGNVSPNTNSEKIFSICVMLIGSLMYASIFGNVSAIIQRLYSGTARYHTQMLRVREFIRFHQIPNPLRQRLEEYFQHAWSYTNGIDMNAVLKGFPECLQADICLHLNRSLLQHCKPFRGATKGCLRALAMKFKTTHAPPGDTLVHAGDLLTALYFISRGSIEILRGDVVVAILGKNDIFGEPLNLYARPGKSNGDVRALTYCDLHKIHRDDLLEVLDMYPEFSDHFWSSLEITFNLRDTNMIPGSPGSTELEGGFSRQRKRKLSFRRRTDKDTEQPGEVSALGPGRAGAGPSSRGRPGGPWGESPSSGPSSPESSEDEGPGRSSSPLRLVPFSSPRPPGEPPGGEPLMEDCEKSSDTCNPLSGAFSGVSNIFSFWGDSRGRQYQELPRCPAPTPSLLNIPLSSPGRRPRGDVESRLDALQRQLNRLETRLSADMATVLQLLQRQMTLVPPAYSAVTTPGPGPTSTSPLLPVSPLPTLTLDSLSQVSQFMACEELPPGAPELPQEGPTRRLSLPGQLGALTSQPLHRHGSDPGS
T1 sequence (O75460 19-977): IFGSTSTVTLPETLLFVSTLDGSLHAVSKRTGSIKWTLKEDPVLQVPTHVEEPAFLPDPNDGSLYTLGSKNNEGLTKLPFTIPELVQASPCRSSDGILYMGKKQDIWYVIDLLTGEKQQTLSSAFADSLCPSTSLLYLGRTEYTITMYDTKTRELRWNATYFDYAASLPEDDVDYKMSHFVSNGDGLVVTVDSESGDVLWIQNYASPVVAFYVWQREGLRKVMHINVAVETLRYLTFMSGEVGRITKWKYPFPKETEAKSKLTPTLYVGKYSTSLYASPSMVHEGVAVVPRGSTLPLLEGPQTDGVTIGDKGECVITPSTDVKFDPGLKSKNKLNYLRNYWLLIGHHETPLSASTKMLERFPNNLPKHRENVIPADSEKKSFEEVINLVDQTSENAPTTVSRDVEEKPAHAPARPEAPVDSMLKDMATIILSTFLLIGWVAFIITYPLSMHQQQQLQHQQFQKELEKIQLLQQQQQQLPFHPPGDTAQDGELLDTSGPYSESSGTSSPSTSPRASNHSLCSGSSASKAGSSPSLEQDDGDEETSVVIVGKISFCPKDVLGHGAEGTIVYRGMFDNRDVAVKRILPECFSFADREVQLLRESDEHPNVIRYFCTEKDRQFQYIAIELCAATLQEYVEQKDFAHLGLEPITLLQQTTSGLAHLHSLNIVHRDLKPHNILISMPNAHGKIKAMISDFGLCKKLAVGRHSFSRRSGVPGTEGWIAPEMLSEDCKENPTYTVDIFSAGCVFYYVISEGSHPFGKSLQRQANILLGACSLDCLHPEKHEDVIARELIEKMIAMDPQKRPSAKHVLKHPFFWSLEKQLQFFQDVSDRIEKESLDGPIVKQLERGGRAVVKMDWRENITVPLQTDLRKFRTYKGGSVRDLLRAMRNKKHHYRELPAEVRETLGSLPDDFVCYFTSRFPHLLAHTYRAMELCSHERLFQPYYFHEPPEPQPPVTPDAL

| Structure (SMILES) | suppression of IRE1a-mediated XBP1 splicing in vivo [1] | HLM Remaining at 60 min ([2]; 60 min) | Human CI ([2]; human liver microsomes, 37° C., NADPH regenerating system) | half-life at 1 NM ([2]; human, liver microsomes (pooled from multiple donors), 37° C., 0.5 mg/ml microsomal protein, NADPH regenerating system, read-out: Human Liver Microsome (HLM) T1/2) | splicing ratio of XBP1 (spliced Xbp1 transcripts divided by total Xbp1 transcripts) compared to vehicle-treated mice [3] | Mouse Liver Microsome CI ([4]; 37° C., NADPH regenerating system) | Mouse Liver Microsome Remaining at 60 min ([4]; 60 min) | half-life at 1 NM ([4]; mouse, liver microsomes (pooled from multiple donors), 37° C., 0.5 mg/ml microsomal protein, NADPH regenerating system, read-out: Mouse Liver Microsome T1/2) | IC50 (IRE1a [5]) | IC50 (hERG channel) | % Growth at 0.185 uM (293T cells) | % Growth at 0.5556 uM (293T cells) | % Growth at 1.667 uM (293T cells) | % Growth at 5 uM (293T cells) | EC50 (IRE1a [6]) |
| --- | --- | --- | --- | --- | --- | --- | --- | --- | --- | --- | --- | --- | --- | --- | --- |
| CCc1cc(-c2ccc(NS(=O)(=O)c3ccccc3Cl)cc2C)cc2cnc(N[C@H]3CC[C@H](N)CC3)nc12 [Compound 3, N-(4-(2-(((1r,4r)-4-aminocyclohexyl)amino)-8-ethylquinazolin-6-yl)-3-methylphenyl)-2-chlorobenzenesulfonamide] | potently suppresses | 44% | 29.2 µL/min/mg | 47.5 min | markedly reduced | 31.9 µL/min/mg | 41% | 43.5 min |  |  |  |  |  |  |  |
| CCc1cc(-c2ccc(NS(=O)(=O)c3ccccc3Cl)cc2C)cc2cnc(N[C@H]3CC[C@H](N)CC3)nc12.O=CO [3; Formic Acid] |  |  |  |  |  |  |  |  | ≤ 5 nM | 10000 to 50000 nM | D (D: >75% to ≤100%) | D (D: >75% to ≤100%) | C (C: >50% to ≤75%) | A (A: ≤25%) | 5 to 50 nM |
| CCc1cc(-c2ccc(NS(=O)(=O)c3ccccc3Cl)c(F)c2)cc2cnc(N[C@H]3CC[C@H](N)CC3)nc12.O=CO [24; Formic Acid] |  |  |  |  |  |  |  |  | ≤ 5 nM | 1000 to 10000 nM | D (D: >75% to ≤100%) | D (D: >75% to ≤100%) | C (C: >50% to ≤75%) | C (C: >50% to ≤75%) | ≤ 5 nM |
| CCc1cc(-c2ccc(NS(=O)(=O)c3ccccc3Cl)nc2C)cc2cnc(N[C@H]3CC[C@H](N)CC3)nc12.O=CO [16; Formic Acid] |  |  |  |  |  |  |  |  | ≤ 5 nM | 10000 to 50000 nM | D (D: >75% to ≤100%) | D (D: >75% to ≤100%) | D (D: >75% to ≤100%) | B (B: >25% to ≤50%) | ≤ 5 nM |
| CCc1cc(-c2cc(F)c(NS(=O)(=O)c3ccccc3Cl)cc2C)cc2cnc(N[C@H]3CC[C@H](N)CC3)nc12.O=CO [21; Formic Acid] |  |  |  |  |  |  |  |  | ≤ 5 nM |  | D (D: >75% to ≤100%) | D (D: >75% to ≤100%) | D (D: >75% to ≤100%) | B (B: >25% to ≤50%) | 5 to 50 nM |
| CCc1cc(-c2ccc(NS(=O)(=O)c3ccccc3Cl)c(F)c2)cc2cnc(N[C@H]3CC[C@H](N(C)C)CC3)nc12.O=CO [69; Formic Acid] |  |  |  |  |  |  |  |  | ≤ 5 nM | 10000 to 50000 nM |  | D (D: >75% to ≤100%) | C (C: >50% to ≤75%) | C (C: >50% to ≤75%) | ≤ 5 nM |
| CCc1cc(-c2ccc(NS(=O)(=O)c3ccccc3Cl)nc2OC)cc2cnc(N[C@H]3CC[C@H](N)CC3)nc12 [37; HCl ^] |  |  |  |  |  |  |  |  | ≤ 5 nM | 10000 to 50000 nM |  | D (D: >75% to ≤100%) | C (C: >50% to ≤75%) | B (B: >25% to ≤50%) | ≤ 5 nM |
| CCc1cc(-c2cnc(NS(=O)(=O)c3ccccc3Cl)nc2C)cc2cnc(N[C@H]3CC[C@H](N)CC3)nc12.O=CO [23; Formic Acid] |  |  |  |  |  |  |  |  | ≤ 5 nM |  | D (D: >75% to ≤100%) | C (C: >50% to ≤75%) | C (C: >50% to ≤75%) | D (D: >75% to ≤100%) | ≤ 5 nM |
| CCc1cc(-c2ccc(NS(=O)(=O)c3ccccc3Cl)c(F)c2C)cc2cnc(N[C@H]3CC[C@H](N)CC3)nc12.O=CO [71; Formic Acid] |  |  |  |  |  |  |  |  | ≤ 5 nM |  | D (D: >75% to ≤100%) | D (D: >75% to ≤100%) | C (C: >50% to ≤75%) | B (B: >25% to ≤50%) | ≤ 5 nM |
| CCc1cc(-c2ccc(NS(=O)(=O)c3ccccc3Cl)cc2OC)cc2cnc(N[C@H]3CC[C@H](N)CC3)nc12.O=CO [19; Formic Acid] |  |  |  |  |  |  |  |  | ≤ 5 nM |  | D (D: >75% to ≤100%) | D (D: >75% to ≤100%) | C (C: >50% to ≤75%) | A (A: ≤25%) | ≤ 5 nM |
| CCc1cc(-c2ccc(NS(=O)(=O)c3ccccc3Cl)cc2)cc2cnc(N[C@H]3CC[C@H](N)CC3)nc12.O=CO [18; Formic Acid] |  |  |  |  |  |  |  |  | ≤ 5 nM |  | D (D: >75% to ≤100%) | D (D: >75% to ≤100%) | C (C: >50% to ≤75%) | A (A: ≤25%) | ≤ 5 nM |
| CCc1cc(-c2nnc(NS(=O)(=O)c3ccccc3Cl)cc2OC)cc2cnc(N[C@H]3CC[C@H](N)CC3)nc12.O=CO [65; Formic Acid] |  |  |  |  |  |  |  |  | ≤ 5 nM |  | D (D: >75% to ≤100%) | D (D: >75% to ≤100%) | D (D: >75% to ≤100%) | C (C: >50% to ≤75%) | 5 to 50 nM |
| CCc1cc(-c2cnc(NS(=O)(=O)c3ccccc3Cl)c(F)c2)cc2cnc(N[C@H]3CC[C@H](N)CC3)nc12.O=CO [55; Formic Acid] |  |  |  |  |  |  |  |  | ≤ 5 nM |  | D (D: >75% to ≤100%) | D (D: >75% to ≤100%) | D (D: >75% to ≤100%) | D (D: >75% to ≤100%) | ≤ 5 nM |
| CCc1cc(-c2ccc(NS(=O)(=O)c3ccccc3Cl)cn2)cc2cnc(N[C@H]3CC[C@H](N)CC3)nc12.O=CO [28; Formic Acid] |  |  |  |  |  |  |  |  | ≤ 5 nM |  | D (D: >75% to ≤100%) | D (D: >75% to ≤100%) | C (C: >50% to ≤75%) | B (B: >25% to ≤50%) | ≤ 5 nM |

Source: US20180346446A1, “IRE1 SMALL MOLECULE INHIBITORS” (QUENTIS THERAPEUTICS, INC., priority 2017, published 2018)
